Measurements reported in the supplement of paper PMC4862054.
“And” between values parts separate entries of the source, which are not always exact repeats. Equal entries are not always repeated.

Columns and labels:
Assay in all cases: normalised viability (% of control), CellTiter-Blue; higher = more viable cells (about 100 = DMSO control)
Conditions in all cases: incubation time: 72 h
[1] = test system: BT-474
How it was run: (§1)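 Breast cancer cell lines in 20 µl suspension were seeded onto 384-well plates pre-loaded with compound dissolved in 5 µl medium, then incubated 72 h. CellTiter-Blue reagent (2.5 µl) was added for 2 h at 37 °C and fluorescence read at 560/590 nm. Each plate was normalised to vehicle (100) and a positive kill control (0), with Z'-factor quality control. The value is normalised viability at one listed concentration of the series.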

[2] = test system: BT-549
How it was run: as §1

[3] = test system: CAL-148
How it was run: as §1

[4] = test system: CAL-85-1
How it was run: as §1

[5] = test system: DU-4475
How it was run: as §1

[6] = test system: HCC1143
How it was run: as §1

[7] = test system: HCC1937
How it was run: as §1

[8] = test system: HDQ-P1
How it was run: as §1

[9] = test system: MDA-MB-231
How it was run: as §1

[10] = test system: MDA-MB-468
How it was run: as §1

[11] = test system: SK-BR-3
How it was run: as §1

CC(=O)[C@]1(O)Cc2c(O)c3c(c(O)c2[C@@H](O[C@H]2C[C@H](N)[C@H](O)[C@H](C)O2)C1)C(=O)c1ccccc1C3=O [Idarubicin]
normalised viability [%]
Conditions	0.3 nM	1 nM	3 nM	10 nM	100 nM	1000 nM
[1]	–	97.3	–	–	61.8	7.38
[2]	–	108	–	–	50	9.06
[3]	91.7	–	93.2	63.2	–	–
[4]	104	–	91.9	94.3	–	–
[5]	89.8	–	90.2	55.7	–	–
[6]	–	96	–	–	61	30.1
[7]	–	90.3	–	–	22.1	21.3
[8]	118	–	120	104	–	–
[9]	–	101	–	–	41.5	8.68
[10]	–	100	–	–	41.2	4.98
[11]	–	107	–	–	26.4	4.23

CO[C@@H]1[C@H](N(C)C(=O)c2ccccc2)C[C@H]2O[C@]1(C)n1c3ccccc3c3c4c(c5c6ccccc6n2c5c31)C(=O)NC4 [Midostaurin]
normalised viability [%]
Conditions	3 nM	10 nM	30 nM	100 nM	1000 nM	10000 nM
[1]	–	105	–	–	91.3	84.3
[2]	–	80.4	–	–	59.5	18.7
[3]	115	–	105	129	–	–
[4]	112	–	111	103	–	–
[5]	94.7	–	92.4	101	–	–
[6]	–	145	–	–	75	61.3
[7]	–	111	–	–	56.5	44.9
[8]	84.7	–	95.7	96.8	–	–
[9]	–	92.8	–	–	49.1	42.4
[10]	–	98.5	–	–	46.6	41.4
[11]	–	94	–	–	77.4	39.5

CC(O)(CS(=O)(=O)c1ccc(F)cc1)C(=O)Nc1ccc(C#N)c(C(F)(F)F)c1 (stereo unspecified) [Bicalutamide]
normalised viability [%]
Conditions	3 nM	10 nM	30 nM	100 nM	1000 nM	10000 nM
[1]	–	119	–	–	109	138
[2]	–	87	–	–	94.3	87.2
[3]	101	–	100	102	–	–
[4]	93.7	–	97.3	104	–	–
[5]	92.2	–	88.8	99.1	–	–
[6]	–	94.8	–	–	105	92.7
[7]	–	101	–	–	107	78.5
[8]	86.9	–	110	118	–	–
[9]	–	103	–	–	122	122
[10]	–	118	–	–	93.9	91.3
[11]	–	104	–	–	107	114

COc1ccc(S(=O)(=O)Nc2cccnc2Nc2ccc(O)cc2)cc1 [ABT-751]
normalised viability [%]
Conditions	3 nM	10 nM	30 nM	100 nM	1000 nM	10000 nM
[1]	–	112	–	–	60.7	54
[2]	–	94.1	–	–	77.2	13.6
[3]	91.9	–	89.2	86.7	–	–
[4]	94.1	–	86.2	88.9	–	–
[5]	88.8	–	95.2	89.9	–	–
[6]	–	83.8	–	–	56.1	29.1
[7]	–	86.8	–	–	24.7	14
[8]	91.2	–	102	107	–	–
[9]	–	89.3	–	–	28.8	14.7
[10]	–	105	–	–	55.9	34.7
[11]	–	93.3	–	–	16.9	15.6

CC(C)C[C@H](NC(=O)[C@@H](COC(C)(C)C)NC(=O)[C@H](Cc1ccc(O)cc1)NC(=O)[C@H](CO)NC(=O)[C@H](Cc1c[nH]c2ccccc12)NC(=O)[C@H](Cc1cnc[nH]1)NC(=O)[C@@H]1CCC(=O)N1)C(=O)N[C@@H](CCCNC(=N)N)C(=O)N1CCC[C@H]1C(=O)NNC(N)=O [Goserelin]
normalised viability [%]
Conditions	3 nM	10 nM	30 nM	100 nM	1000 nM	10000 nM
[1]	–	115	–	–	111	131
[2]	–	85.9	–	–	88	103
[3]	92	–	97	98.9	–	–
[4]	102	–	93.9	102	–	–
[5]	91.4	–	84	111	–	–
[6]	–	82.8	–	–	95	89
[7]	–	104	–	–	85.1	97.4
[8]	104	–	109	103	–	–
[9]	–	102	–	–	110	114
[10]	–	96.5	–	–	94.5	108
[11]	–	98.8	–	–	106	94.7

O=C(CCCCCCC(=O)Nc1ccccc1)NO [Vorinostat]
Conditions	normalised viability
[1], 10 nM	98.6% and 105%
[1], 1000 nM	92.6% and 78.7%
[1], 10000 nM	3.63% and 2.44%
[2], 10 nM	108% and 102%
[2], 1000 nM	89.2% and 82.3%
[2], 10000 nM	48% and 33.2%
[3], 3 nM	78% and 95.3%
[3], 30 nM	90.2% and 100%
[4], 3 nM	91% and 103%
[4], 30 nM	85.7% and 96.9%
[4], 100 nM	100% and 106%
[5], 3 nM	108% and 97.7%
[5], 30 nM	104% and 99.7%
[5], 100 nM	99.1% and 94.5%
[6], 10 nM	86.1% and 105%
[6], 1000 nM	86.9% and 84.5%
[6], 10000 nM	21.4% and 24.2%
[7], 10 nM	73% and 92.4%
[7], 1000 nM	77.7% and 63.4%
[7], 10000 nM	24.6% and 22.7%
[8], 3 nM	99.4% and 88.7%
[8], 30 nM	97.2% and 84.3%
[8], 100 nM	95.6% and 87.5%
[9], 10 nM	99.4% and 89.5%
[9], 1000 nM	88.3% and 84.1%
[9], 10000 nM	13.9% and 12.9%
[10], 10 nM	105%
[10], 1000 nM	80.6% and 76%
[10], 10000 nM	32.5% and 40.6%
[11], 10 nM	104% and 95.2%
[11], 1000 nM	54.3% and 45.8%
[11], 10000 nM	3.79% and 4.28%

Cn1cc(C2=C(c3cn(C4CCN(Cc5ccccn5)CC4)c4ccccc34)C(=O)NC2=O)c2ccccc21 [Enzastaurin]
normalised viability [%]
Conditions	3 nM	10 nM	30 nM	100 nM	1000 nM	10000 nM
[1]	–	104	–	–	92.7	67
[2]	–	92.4	–	–	68.9	48.1
[3]	78.6	–	80.2	78.5	–	–
[4]	85.1	–	93.4	85.4	–	–
[5]	91.1	–	103	94.2	–	–
[6]	–	76.8	–	–	64.8	61.5
[7]	–	91.1	–	–	75.6	48.9
[8]	113	–	107	89.3	–	–
[9]	–	88.2	–	–	89.6	71.1
[10]	–	103	–	–	107	62.8
[11]	–	99.8	–	–	63.4	37

CC(C)(C)NC(=O)[C@H]1CC[C@H]2[C@@H]3CC[C@H]4NC(=O)C=C[C@]4(C)[C@H]3CC[C@]12C [Finasteride]
normalised viability [%]
Conditions	3 nM	10 nM	30 nM	100 nM	1000 nM	10000 nM
[1]	–	125	–	–	111	125
[2]	–	89.8	–	–	99	98.5
[3]	95.1	–	96.8	102	–	–
[4]	100	–	91.7	100	–	–
[5]	97.7	–	106	103	–	–
[6]	–	102	–	–	96.8	106
[7]	–	107	–	–	94.7	106
[8]	121	–	116	130	–	–
[9]	–	98.2	–	–	98.5	122
[10]	–	106	–	–	99.2	121
[11]	–	110	–	–	107	102

Cc1cn(-c2cc(NC(=O)c3ccc(C)c(Nc4nccc(-c5cccnc5)n4)c3)cc(C(F)(F)F)c2)cn1 [Nilotinib]
normalised viability
Conditions	3 nM	10 nM	30 nM	100 nM	1000 nM	10000 nM
[1]	–	107% and 99.8%	–	–	93.9% and 106%	92.1% and 103%
[2]	–	97.3% and 88.6%	–	–	71.5% and 73.6%	43.4% and 40.7%
[3]	77% and 88.5%	–	86.2% and 93.4%	90.8% and 95.3%	–	–
[4]	87% and 87.5%	–	81.8% and 80.2%	85.7% and 90.7%	–	–
[5]	105% and 98.1%	–	96.6% and 119%	97.6% and 99.3%	–	–
[6]	–	70.6% and 81.2%	–	–	98.7% and 101%	65% and 65.2%
[7]	–	86% and 80.5%	–	–	69.4%	71.9% and 73.7%
[8]	92.5% and 86.2%	–	87.3% and 81.5%	95.3% and 83.1%	–	–
[9]	–	87.6% and 94.3%	–	–	71.3% and 75.2%	57.3% and 45.2%
[10]	–	100% and 102%	–	–	108% and 106%	97.5% and 108%
[11]	–	104% and 94.5%	–	–	100% and 96.5%	90.4% and 94.3%
